Data on six molecules can be found in patent US11965039B2, “Compstatin analogues and their medical uses” (priority 2018, dated 2024).

The structures appear in SMILES notation. Starred links: 1 amine or outer side, 2 acyl side, 3 side chain; linkers in the order of their positions; H or OH if unused. Positions of bridges follow the written chain, without caps; N, C: chain ends. Non-standard residues stand in square brackets, D forms with d. Residues, ends and D or L forms follow the SMILES beside them. Groups on a side chain read outwards from the residue. *: point of attachment. Trp(1-Me) = Cn1cc(C[C@H](N)C(=O)O)c2ccccc21; C18 diacid = O=C(O)CCCCCCCCCCCCCCCCC(=O)*; C16 diacid = O=C(O)CCCCCCCCCCCCCCC(=O)*; γGlu = O=C(O)[C@H](CCC(=O)[*:2])N[*:1]; Sar = CNCC(=O)O

Data set [1] has as its system classical complement pathway. Put plainly: In vitro haemolysis assay (inhibition of classical complement pathway). Type of data set: cell-based, human. The note with it: human serum, sensitized sheep red blood cells; Table 3, given as upper bounds; read-out: IC50, inhibition of hemolysis. The method in brief:
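Compound dilutions preincubated 15 min at room temperature with diluted human serum (titrated per batch for 70-90% maximal haemolysis), then antibody-sensitized sheep RBC (10^7/well) added for 30 min at 37 °C in Tris/casein buffer, pH 7.4. Stopped with EDTA; haemolysis read at 405 nm; IC50 by 4PL fit.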

Data set [2] in a line: Solubility test at 10 mg/mL (visual inspection and light scattering). Format: physicochemical. Conditions: for Solubility, Condition 1: Acetate pH 4; for Solubility, Condition 2: Acetate pH 5; for Solubility, Condition 3: Phosphate pH 6; for Solubility, Condition 4: Phosphate pH 7; for Solubility, Condition 5: Phosphate pH 7.5.

One may read the IC50 as the concentration needed to halve the response being measured. Take `CC[C@H](C)[C@@H]1NC(=O)[C@@H](NC(=O)[C@H](Cc2ccc(O)cc2)NC(=O)[C@H](CCC(=O)O)NC(=O)[C@H](CO)NC(C)=O)CSSC[C@@H](C(=O)N(C)CC(=O)N[C@@H](CCC(=O)O)C(=O)NCC(=O)N[C@@H](CCC(=O)O)C(=O)N[C@@H](CCCCNC(=O)CC[C@H](NC(=O)CNC(=O)CC[C@H](NC(=O)CCCCCCCCCCCCCCCCC(=O)O)C(=O)O)C(=O)O)C(N)=O)NC(=O)[C@H](CCCNC(=N)N)NC(=O)[C@H](Cc2c[nH]cn2)NC(=O)[C@H](CCC(=O)O)NC(=O)CNC(=O)[C@H](Cc2c[nH]c3ccccc23)NC(=O)[C@H](CC(=O)O)NC(=O)[C@H](CCC(N)=O)NC(=O)[C@H](Cc2cn(C)c3ccccc23)NC1=O` [Compound 114] (Ac-SEYCI[Trp(1-Me)]QDWGEHRC[Sar]EGEK([γGlu-Gly-γGlu-C18 diacid])-NH2; disulfide 4-14): in data set [1], the IC50 is below 500 nM. For the same molecule, in data set [2], the “Solubility, Condition 1” value was “+ (“+” denotes solubility at the given condition, as determined by UV absorbance being less than 0.1 AU at 340 nm and the sample being clear when manually inspected)”; the “Solubility, Condition 2” value was “+ (“+” denotes solubility at the given condition, as determined by UV absorbance being less than 0.1 AU at 340 nm and the sample being clear when manually inspected)”; the “Solubility, Condition 3” value is “+ (“+” denotes solubility at the given condition, as determined by UV absorbance being less than 0.1 AU at 340 nm and the sample being clear when manually inspected)”; the “Solubility, Condition 4” value is “+ (“+” denotes solubility at the given condition, as determined by UV absorbance being less than 0.1 AU at 340 nm and the sample being clear when manually inspected)”. Besides, the “Solubility, Condition 5” value in data set [2] was “+ (“+” denotes solubility at the given condition, as determined by UV absorbance being less than 0.1 AU at 340 nm and the sample being clear when manually inspected)”.

Regarding `CC[C@H](C)[C@@H]1NC(=O)[C@@H](NC(=O)[C@H](Cc2ccc(O)cc2)NC(=O)[C@H](CCC(=O)O)NC(=O)[C@H](CO)NC(=O)CNC(=O)[C@H](CCC(=O)O)NC(=O)CCCCCCCCCCCCCCC(=O)O)CSSC[C@@H](C(=O)N(C)CC(=O)N[C@@H](CCC(=O)O)C(N)=O)NC(=O)[C@H](CCCNC(=N)N)NC(=O)[C@H](Cc2c[nH]cn2)NC(=O)[C@H](CCC(=O)O)NC(=O)CNC(=O)[C@H](Cc2c[nH]c3ccccc23)NC(=O)[C@H](CC(=O)O)NC(=O)[C@H](CCC(N)=O)NC(=O)[C@H](Cc2cn(C)c3ccccc23)NC1=O` [Compound 107] ({C16 diacid}-EGSEYCI[Trp(1-Me)]QDWGEHRC[Sar]E-NH2; disulfide 6-16), the IC50 in data set [1] is below 100 nM. Besides, in data set [2], the “Solubility, Condition 1” value was “− (“−” denotes lack of solubility at the given condition, as UV absorbance at 340 nm exceeds 0.1 AU and/or it is visibly turbid or contains particles)”; the “Solubility, Condition 2” value is reported as “− (“−” denotes lack of solubility at the given condition, as UV absorbance at 340 nm exceeds 0.1 AU and/or it is visibly turbid or contains particles)”; the “Solubility, Condition 3” value is “+ (“+” denotes solubility at the given condition, as determined by UV absorbance being less than 0.1 AU at 340 nm and the sample being clear when manually inspected)”; the “Solubility, Condition 4” value was “+ (“+” denotes solubility at the given condition, as determined by UV absorbance being less than 0.1 AU at 340 nm and the sample being clear when manually inspected)”. Moreover, the “Solubility, Condition 5” value in data set [2] is “+ (“+” denotes solubility at the given condition, as determined by UV absorbance being less than 0.1 AU at 340 nm and the sample being clear when manually inspected)”.

`CC[C@H](C)[C@@H]1NC(=O)[C@@H](NC(=O)[C@H](Cc2ccccc2)NC(=O)[C@H](N)Cc2ccc(O)cc2)CSSC[C@@H](C(=O)N[C@H](C(=O)NCC(=O)N[C@@H](C)C(=O)N[C@@H](CCC(=O)O)C(=O)N[C@@H](CO)C(N)=O)[C@@H](C)O)NC(=O)[C@H](CCCNC(=N)N)NC(=O)[C@H](Cc2c[nH]cn2)NC(=O)[C@H](CCC(=O)O)NC(=O)CN(C)C(=O)[C@H](Cc2c[nH]c3ccccc23)NC(=O)[C@H](CC(=O)O)NC(=O)[C@H](CCC(N)=O)NC(=O)[C@H](Cc2cn(C)c3ccccc23)NC1=O` [Compound 73, H-{d}YFC(1)I[1-Me-Trp]QDW[Sar]EHRC(1)TGAES-NH2] (H-[dY]FCI[Trp(1-Me)]QDW[Sar]EHRCTGAES-NH2; disulfide 3-13): the IC50 in data set [1] was below 100 nM. In data set [2], the “Solubility, Condition 1” value is “+ (“+” denotes solubility at the given condition, as determined by UV absorbance being less than 0.1 AU at 340 nm and the sample being clear when manually inspected)”; the “Solubility, Condition 2” value was “− (“−” denotes lack of solubility at the given condition, as UV absorbance at 340 nm exceeds 0.1 AU and/or it is visibly turbid or contains particles)”; the “Solubility, Condition 3” value is recorded as “− (“−” denotes lack of solubility at the given condition, as UV absorbance at 340 nm exceeds 0.1 AU and/or it is visibly turbid or contains particles)”; the “Solubility, Condition 4” value was “+ (“+” denotes solubility at the given condition, as determined by UV absorbance being less than 0.1 AU at 340 nm and the sample being clear when manually inspected)”. The “Solubility, Condition 5” value in data set [2] is “+ (“+” denotes solubility at the given condition, as determined by UV absorbance being less than 0.1 AU at 340 nm and the sample being clear when manually inspected)”.

`CC[C@H](C)[C@H](NC(C)=O)C(=O)N[C@H]1CSSC[C@@H](C(=O)N[C@@H](CCC(=O)O)C(=O)NCC(=O)N[C@@H](CCC(=O)O)C(N)=O)NC(=O)[C@H](CCCNC(=N)N)NC(=O)[C@H](Cc2c[nH]cn2)NC(=O)[C@H](CCC(=O)O)NC(=O)CNC(=O)[C@H](Cc2c[nH]c3ccccc23)NC(=O)[C@H](CC(=O)O)NC(=O)[C@H](CCC(N)=O)NC(=O)[C@H](Cc2c[nH]c3ccccc23)NC(=O)[C@H]([C@@H](C)CC)NC1=O` [Compound 27] (Ac-ICIWQDWGEHRCEGE-NH2; disulfide 2-12): the IC50 in data set [1] is below 100 nM. For the same molecule, in data set [2], the “Solubility, Condition 1” value was “− (“−” denotes lack of solubility at the given condition, as UV absorbance at 340 nm exceeds 0.1 AU and/or it is visibly turbid or contains particles)”; the “Solubility, Condition 2” value was “− (“−” denotes lack of solubility at the given condition, as UV absorbance at 340 nm exceeds 0.1 AU and/or it is visibly turbid or contains particles)”; the “Solubility, Condition 3” value is “− (“−” denotes lack of solubility at the given condition, as UV absorbance at 340 nm exceeds 0.1 AU and/or it is visibly turbid or contains particles)”; the “Solubility, Condition 4” value is “+ (“+” denotes solubility at the given condition, as determined by UV absorbance being less than 0.1 AU at 340 nm and the sample being clear when manually inspected)”. Also, the “Solubility, Condition 5” value in data set [2] is “+ (“+” denotes solubility at the given condition, as determined by UV absorbance being less than 0.1 AU at 340 nm and the sample being clear when manually inspected)”.

`CC[C@H](C)[C@@H]1NC(=O)[C@@H](NC(=O)[C@H](Cc2ccccc2)NC(=O)[C@H](CCC(=O)O)NC(C)=O)CSSC[C@@H](C(=O)N(C)CC(=O)N[C@@H](CCC(=O)O)C(=O)N[C@@H](C)C(N)=O)NC(=O)[C@H](CCCNC(=N)N)NC(=O)[C@H](Cc2c[nH]cn2)NC(=O)[C@H](CCC(=O)O)NC(=O)CNC(=O)[C@H](Cc2c[nH]c3ccccc23)NC(=O)[C@H](CC(=O)O)NC(=O)[C@H](CCC(N)=O)NC(=O)[C@H](Cc2cn(C)c3ccccc23)NC1=O` [Compound 80] (Ac-EFCI[Trp(1-Me)]QDWGEHRC[Sar]EA-NH2; disulfide 3-13): the IC50 in data set [1] is below 100 nM. Besides, in data set [2], the “Solubility, Condition 1” value is reported as “− (“−” denotes lack of solubility at the given condition, as UV absorbance at 340 nm exceeds 0.1 AU and/or it is visibly turbid or contains particles)”; the “Solubility, Condition 2” value is “− (“−” denotes lack of solubility at the given condition, as UV absorbance at 340 nm exceeds 0.1 AU and/or it is visibly turbid or contains particles)”; the “Solubility, Condition 3” value was “+ (“+” denotes solubility at the given condition, as determined by UV absorbance being less than 0.1 AU at 340 nm and the sample being clear when manually inspected)”; the “Solubility, Condition 4” value is “+ (“+” denotes solubility at the given condition, as determined by UV absorbance being less than 0.1 AU at 340 nm and the sample being clear when manually inspected)”. Besides, the “Solubility, Condition 5” value in data set [2] is “+ (“+” denotes solubility at the given condition, as determined by UV absorbance being less than 0.1 AU at 340 nm and the sample being clear when manually inspected)”.

As for `CC[C@H](C)[C@@H]1NC(=O)[C@@H](NC(=O)[C@H](Cc2ccc(O)cc2)NC(=O)[C@H](C)NC(=O)[C@H](CO)NC(=O)CNC(=O)[C@H](CCC(=O)O)NC(C)=O)CSSC[C@@H](C(=O)N(C)CC(=O)N[C@@H](CCC(=O)O)C(=O)NCC(=O)N[C@@H](CCC(=O)O)C(=O)N[C@@H](CCCCNC(=O)CC[C@H](NC(=O)CNC(=O)CC[C@H](NC(=O)CCCCCCCCCCCCCCCCC(=O)O)C(=O)O)C(=O)O)C(N)=O)NC(=O)[C@H](CCCNC(=N)N)NC(=O)[C@H](Cc2c[nH]cn2)NC(=O)[C@H](CCC(=O)O)NC(=O)CNC(=O)[C@H](Cc2c[nH]c3ccccc23)NC(=O)[C@H](CC(=O)O)NC(=O)[C@H](CCC(N)=O)NC(=O)[C@H](Cc2cn(C)c3ccccc23)NC1=O` [Compound 109] (Ac-EGSAYCI[Trp(1-Me)]QDWGEHRC[Sar]EGEK([γGlu-Gly-γGlu-C18 diacid])-NH2; disulfide 6-16), in data set [1], the IC50 was below 250 nM. For the same molecule, in data set [2], the “Solubility, Condition 1” value is listed as “− (“−” denotes lack of solubility at the given condition, as UV absorbance at 340 nm exceeds 0.1 AU and/or it is visibly turbid or contains particles)”; the “Solubility, Condition 2” value was “+ (“+” denotes solubility at the given condition, as determined by UV absorbance being less than 0.1 AU at 340 nm and the sample being clear when manually inspected)”; the “Solubility, Condition 3” value is “+ (“+” denotes solubility at the given condition, as determined by UV absorbance being less than 0.1 AU at 340 nm and the sample being clear when manually inspected)”; the “Solubility, Condition 4” value was “+ (“+” denotes solubility at the given condition, as determined by UV absorbance being less than 0.1 AU at 340 nm and the sample being clear when manually inspected)”. The “Solubility, Condition 5” value in data set [2] was “+ (“+” denotes solubility at the given condition, as determined by UV absorbance being less than 0.1 AU at 340 nm and the sample being clear when manually inspected)”.
